# From PMC11062899, “De novo development of small cyclic peptides that are orally bioavailable” (Nature Chemical Biology, 2023)
# Values joined by “and” are separate entries in the source; they are usually repeats but may differ in a detail not shown here. Equal entries are not always repeated. Where two headings read alike, the source gives them in different places.
# Experiments:
# [1] = Passive artificial membrane permeability (PAMPA)
# [2] = biological target: T1, porcine pepsin (Sus scrofa, UniProt P00791); assay: Peptide stability in simulated gastric fluid (SGF); assay type: in vitro ADME; parameters: remaining at 8 h: dose or concentration left out as unconfirmed; conditions: for remaining at 8 h: pH 1.2
# T1 construct: 0.32 g of porcine pepsin (Sigma-Aldrich, P7125) was dissolved under gentle agitation; purchased Sigma-Aldrich P7125
# In short: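 Peptide from a 1 mM DMSO stock was added to fluid pre-warmed at 37 °C. SGF was pH 1.2 NaCl with porcine pepsin (0.32 g per 100 ml), and SIF was pH 6.8 potassium phosphate with porcine pancreatin (1 g per 100 ml). Supernatant peptide was quantified by LC–MS, with residual expressed as T1/T0.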
# [3] = biological target: T2, rat α-thrombin (Rattus norvegicus, UniProt P18292); assay: Protease inhibition, Ki for rat α-thrombin (fluorogenic substrate Z-Gly-Gly-Arg-AMC); assay type: biochemical; conditions: for Slope normalized to DMSO (proteolytic substrate cleavage over time) / Rat alpha thrombin inhibition, slope normalized to DMSO: replicates R1-R3
# T2 construct: rat α-thrombin (Molecular Innovations) were used at final concentrations of 2 nM and 3 nM; purchased Molecular Innovations
# In short: (§1)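 Inhibition was measured as AMC fluorescence from 50 μM substrate, monitored for 30 min at 25 °C, relative to a peptide-free control. Human and rat enzymes were present at 2 nM and 3 nM final, respectively, in 50 mM Tris-HCl pH 7.4, 150 mM NaCl, 10 mM MgCl2, 1 mM CaCl2. Ki derives from fitted IC50 via Cheng–Prusoff.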
# [4] = biological target: human α-thrombin (Homo sapiens, UniProt P00734); assay: Protease inhibition, Ki for human α-thrombin (fluorogenic substrate Z-Gly-Gly-Arg-AMC); assay type: biochemical; conditions: for Human alpha thrombin inhibition, slope normalized to DMSO: replicates R1-R3
# In short: as §1
# [5] = Metabolic stability in rat liver microsomes (RLMs); conditions: rat, microsomes
# Procedure: Metabolic stability was measured by incubating the peptides (10 μM) with RLMs. Peptides to test were dissolved in DMSO (4 mM), and 1 μl of the resulting solution was added to 365 μl of 0.1 M sodium phosphate buffer (pH 7.4). The solution was pre-warmed at 37 °C for 5 min before starting the reaction by addition of 24 μl of NADPH cofactor solution (22 mM) and 11 μl of RLMs (20 mg ml^−1 protein concentration; Thermo Fisher Scientific, RTMCPL). […] Samples were vortexed, sonicated for 5 min and centrifuged at 16,000g for 10 min. Supernatant was analyzed by LC–MS to quantify the disappearance of the compound and formation of degradation products.
# [6] = peptide 1.33E+02 uM, slope of proteolytic substrate cleavage over time
# T1 sequence (P00791 60-385): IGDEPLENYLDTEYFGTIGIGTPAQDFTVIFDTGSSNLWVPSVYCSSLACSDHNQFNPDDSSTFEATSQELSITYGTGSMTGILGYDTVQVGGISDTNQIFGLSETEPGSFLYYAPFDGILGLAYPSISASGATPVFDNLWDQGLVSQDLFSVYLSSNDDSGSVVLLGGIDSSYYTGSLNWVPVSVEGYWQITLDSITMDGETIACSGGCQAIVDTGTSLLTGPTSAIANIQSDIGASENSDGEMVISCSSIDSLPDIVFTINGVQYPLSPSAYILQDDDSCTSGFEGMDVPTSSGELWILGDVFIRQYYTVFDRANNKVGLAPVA
smiles,measurement,setting,value
O=C1C[C@H]2CCCN2C(=O)[C@H](Cc2ccccc2)NC(=O)[C@@H](NC(=O)c2ccc(Cl)s2)CSCCS(=O)(=O)CCSCCN1 [peptide 11],PAMPA permeability: % permeability,"[1]; 50 μM, 12–18 h, acceptor concentration relative to equilibrium",1.23 ± 0.72%
same,Papp at 50 μM,"[1]; PAMPA, pH 7.4",0.0708 ×10⁻⁶ cm/s
same,Permeability% Average,"[1]; PAMPA, average of R1-R3",1.2%
same,Permeability% R1,"[1]; PAMPA, replicate R1, TIC of top well sample relative to sample at theoretical equilibrium",0.47%
same,Permeability% R3,"[1]; PAMPA, replicate R3, TIC of top well sample relative to sample at theoretical equilibrium",1.91%
same,"SGF stability, Residual peptide","[2]; after 8 h vs 0 h (TIC), single replicates R1-R3",36.24 and 43.40 and 29.72
same,remaining at 8 h,"[2]; pig, simulated gastric fluid (SGF, USP) with porcine pepsin, after 8 h vs 0 h (TIC), average of R1-R3, read-out: SGF stability, Residual peptide Average",36.5%
same,remaining at 8 h,"[2]; simulated gi fluid, 8 h, 37 °C, read-out: Proteolytic stability: SGF (8 h) % remaining",36 ± 7%
same,Ki,"[3]; average of R1-R3, read-out: Ki Average",36.8 nM
same,Slope normalized to DMSO (proteolytic substrate cleavage over time),[3]; peptide 1.02E-03 uM,94.9 and 90.5 and 126.3
same,Slope normalized to DMSO (proteolytic substrate cleavage over time),[3]; peptide 1.04E+00 uM,9.4 and 10.0 and 7.6
same,Slope normalized to DMSO (proteolytic substrate cleavage over time),[3]; peptide 1.27E-04 uM,95.1 and 96.6 and 96.3
same,Slope normalized to DMSO (proteolytic substrate cleavage over time),[3]; peptide 1.30E-01 uM,36.1 and 35.6 and 32.6
same,"Rat alpha thrombin inhibition, slope normalized to DMSO",[3]; [6],7.9 and 5.3 and 6.2
same,Slope normalized to DMSO (proteolytic substrate cleavage over time),[3]; peptide 1.63E-02 uM,78.2 and 76.9 and 78.3
same,"Rat alpha thrombin inhibition, slope normalized to DMSO",[3]; peptide 1.67E+01 uM,4.9 and 5.1 and 4.0
same,Slope normalized to DMSO (proteolytic substrate cleavage over time),[3]; peptide 2.03E-03 uM,89.6 and 92.6 and 90.5
same,"Rat alpha thrombin inhibition, slope normalized to DMSO",[3]; peptide 2.08E+00 uM,5.8 and 4.5 and 4.3
same,Slope normalized to DMSO (proteolytic substrate cleavage over time),[3]; peptide 2.54E-04 uM,95.9 and 93.5 and 98.7
same,Slope normalized to DMSO (proteolytic substrate cleavage over time),[3]; peptide 2.60E-01 uM,24.9 and 24.5 and 24.7
same,Slope normalized to DMSO (proteolytic substrate cleavage over time),[3]; peptide 3.18E-05 uM,97.8 and 96.7 and 99.3
same,Slope normalized to DMSO (proteolytic substrate cleavage over time),[3]; peptide 3.26E-02 uM,68.3 and 65.8 and 66.5
same,"Rat alpha thrombin inhibition, slope normalized to DMSO",[3]; peptide 3.33E+01 uM,4.3 and 4.0 and 4.9
same,Slope normalized to DMSO (proteolytic substrate cleavage over time),[3]; peptide 4.07E-03 uM,90.1 and 88.8 and 91.4
same,"Rat alpha thrombin inhibition, slope normalized to DMSO",[3]; peptide 4.17E+00 uM,4.1 and 2.6 and 2.8
same,Slope normalized to DMSO (proteolytic substrate cleavage over time),[3]; peptide 5.09E-04 uM,95.0 and 94.4 and 95.5
same,Slope normalized to DMSO (proteolytic substrate cleavage over time),[3]; peptide 5.21E-01 uM,15.5 and 14.5
same,Slope normalized to DMSO (proteolytic substrate cleavage over time),[3]; peptide 6.36E-05 uM,97.1 and 98.7 and 90.6
same,Slope normalized to DMSO (proteolytic substrate cleavage over time),[3]; peptide 6.51E-02 uM,52.7 and 50.7 and 50.5
same,"Rat alpha thrombin inhibition, slope normalized to DMSO",[3]; peptide 6.67E+01 uM,3.6 and 3.0 and 1.8
same,Slope normalized to DMSO (proteolytic substrate cleavage over time),[3]; peptide 8.14E-03 uM,84.4
same,"Rat alpha thrombin inhibition, slope normalized to DMSO",[3]; peptide 8.33E+00 uM,4.9 (2×) and 4.3
same,IC50,"[3]; single replicates R1-R3, read-out: IC50",71.7 nM and 68.3 nM and 59.7 nM
same,Ki,"[3]; single replicates R1-R3, read-out: Ki",39.7 nM and 37.8 nM and 33 nM (2×)
same,IC50,"[4]; human alpha thrombin, individual replicates R1-R3, read-out: IC50",122 nM and 107 nM and 104 nM
same,Ki,"[4]; human alpha thrombin, individual replicates R1-R3, read-out: Ki",94.1 nM and 82.8 nM and 80.4 nM
same,Ki,"[4]; human alpha thrombin, average of R1-R3, read-out: Ki Average",85.8 nM
same,"Human alpha thrombin inhibition, slope normalized to DMSO",[4]; peptide 1.02E-03 uM,92.7 and 96.3 and 98.1
same,"Human alpha thrombin inhibition, slope normalized to DMSO",[4]; peptide 1.04E+00 uM,14.1 and 15.4 and 19.5
same,"Human alpha thrombin inhibition, slope normalized to DMSO",[4]; peptide 1.27E-04 uM,98.4 and 100.1 and 101.4
same,"Human alpha thrombin inhibition, slope normalized to DMSO",[4]; peptide 1.30E-01 uM,51.2 and 52.1 and 48.8
same,"Human alpha thrombin inhibition, slope normalized to DMSO",[4]; [6],8.1 and 8.7 and 9.0
same,"Human alpha thrombin inhibition, slope normalized to DMSO",[4]; peptide 1.63E-02 uM,87.3 and 78.8 and 85.1
same,"Human alpha thrombin inhibition, slope normalized to DMSO",[4]; peptide 1.67E+01 uM,9.8 and 9.6 and 8.8
same,"Human alpha thrombin inhibition, slope normalized to DMSO",[4]; peptide 2.03E-03 uM,100.0 and 90.9 and 98.1
same,"Human alpha thrombin inhibition, slope normalized to DMSO",[4]; peptide 2.08E+00 uM,10.6 and 11.3 and 7.9
same,"Human alpha thrombin inhibition, slope normalized to DMSO",[4]; peptide 2.54E-04 uM,99.0 and 98.6 and 98.3
same,"Human alpha thrombin inhibition, slope normalized to DMSO",[4]; peptide 2.60E-01 uM,38.3 and 36.0 and 36.6
same,"Human alpha thrombin inhibition, slope normalized to DMSO",[4]; peptide 3.18E-05 uM,100.0 and 103.6 and 101.9
same,"Human alpha thrombin inhibition, slope normalized to DMSO",[4]; peptide 3.26E-02 uM,77.4 and 76.3
same,"Human alpha thrombin inhibition, slope normalized to DMSO",[4]; peptide 3.33E+01 uM,8.8 and 8.2 and 6.8
same,"Human alpha thrombin inhibition, slope normalized to DMSO",[4]; peptide 4.07E-03 uM,95.6 and 92.2 and 94.3
same,"Human alpha thrombin inhibition, slope normalized to DMSO",[4]; peptide 4.17E+00 uM,-2.0 and 6.9 and 2.0
same,"Human alpha thrombin inhibition, slope normalized to DMSO",[4]; peptide 5.09E-04 uM,98.9 and 97.6 and 107.7
same,"Human alpha thrombin inhibition, slope normalized to DMSO",[4]; peptide 5.21E-01 uM,24.9 and 24.6 and 25.0
same,"Human alpha thrombin inhibition, slope normalized to DMSO",[4]; peptide 6.36E-05 uM,101.3 and 99.0 and 104.0
same,"Human alpha thrombin inhibition, slope normalized to DMSO",[4]; peptide 6.51E-02 uM,65.9 and 65.1 and 64.6
same,"Human alpha thrombin inhibition, slope normalized to DMSO",[4]; peptide 6.67E+01 uM,8.2 and 10.4 and 4.8
same,"Human alpha thrombin inhibition, slope normalized to DMSO",[4]; peptide 8.14E-03 uM,92.7 and 91.1 and 94.4
same,"Human alpha thrombin inhibition, slope normalized to DMSO",[4]; peptide 8.33E+00 uM,14.8 and 11.1
same,Ki,"[4]; purified peptide, mean and s.d. of three measurements, read-out: Ki human α-thrombin",82 ± 10 nM
same,Ki,"[4]; single replicates R1-R3, read-out: Ki (nM), human alpha thrombin inhibition",94.1 nM and 82.8 nM and 80.4 nM
same,microsomal CLint,"[5]; CL (ul/min/mg protein) R1, RLM CL, replicate R1",92.9 µL/min/mg
same,microsomal CLint,"[5]; CL (ul/min/mg protein) R2, RLM CL, replicate R2",68.2 µL/min/mg
same,microsomal CLint,"[5]; CL (ul/min/mg protein) R3, RLM CL, replicate R3",83.9 µL/min/mg
same,half-life,"[5]; Half Life (min) R1, RLM metabolic stability, replicate R1, 0-60 min",14.9 min
same,half-life,"[5]; Half Life (min) R2, RLM metabolic stability, replicate R2, 0-60 min",20.3 min
same,half-life,"[5]; Half Life (min) R3, RLM metabolic stability, replicate R3, 0-60 min",16.5 min
same,half-life,"[5]; Metabolic stability: Half life T1/2 (min), RLMs, mean and SD, three measurements",17.3 ± 2.3 min
same,microsomal CLint,"[5]; Metabolic stability: RLM CL (ul/min/mg), RLMs, mean and SD, three measurements",82 ± 10 µL/min/mg
same,microsomal CLint,"[5]; Metabolic stability: RLM CL Average, summary table, average of R1-R3",81.7 µL/min/mg
same,microsomal CLint,"[5]; Metabolic stability: RLM CL R1, summary table, rounded, replicate R1",92.9 µL/min/mg
same,microsomal CLint,"[5]; Metabolic stability: RLM CL R2, summary table, rounded, replicate R2",68.2 µL/min/mg
same,microsomal CLint,"[5]; Metabolic stability: RLM CL R3, summary table, rounded, replicate R3",83.9 µL/min/mg
